Reference: ChEMBL document CHEMBL1201862, “PubChem BioAssay data set” (2004)
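Values below derive from 48-hour exposures of cells grown in 96-well plates, with endpoints linearly interpolated between the two concentrations bracketing the appropriate inhibition level. GI50 is the concentration that inhibits growth by half.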 The source made the active and inactive calls. No stated cut-off is given here; in the data, active = GI50 up to about 1.1 µM and inactive = higher.

Experiments:
Test in all cases: inhibition of tumour cell growth, NCI panel, 48 h
U-251 = tested on: U-251
CAKI-1 = tested on: CAKI-1
SK-MEL-2 = tested on: SK-MEL-2
Malme-3M = tested on: Malme-3M
UACC-257 = tested on: UACC-257
NCI-H226 = tested on: NCI-H226
KM-20L2 = tested on: KM-20L2
OVCAR-4 = tested on: OVCAR-4
UACC-62 = tested on: UACC-62
SK-MEL-28 = tested on: SK-MEL-28
786-0 = tested on: 786-0
SF-295 = tested on: SF-295
SNB-19 = tested on: SNB-19
A498 = tested on: A498
HCT-116 = tested on: HCT-116
MCF7 = tested on: MCF7

Measured: GI50

CCOC(=O)C1=C(C)N(NC(=O)OC)C2(N)N(NC(=O)OC)C(C)=C(C(=O)OCC)C12C#N (stereo not given)
inactive: U-251 > 100 µM | CAKI-1 > 100 µM | SK-MEL-2 > 100 µM | Malme-3M > 100 µM | UACC-257 > 100 µM | NCI-H226 > 100 µM | KM-20L2 > 100 µM | OVCAR-4 > 100 µM | UACC-62 > 100 µM | SK-MEL-28 > 100 µM | 786-0 > 100 µM | SF-295 > 100 µM | SNB-19 > 100 µM | A498 > 100 µM | HCT-116 > 100 µM

O=NN(CCCl)C(=O)N[C@H]1CC[C@@H](CC(=O)O)CC1
inactive: U-251 74 µM | CAKI-1 > 100 µM | MCF7 > 100 µM | SK-MEL-2 > 100 µM | Malme-3M > 100 µM | UACC-257 > 100 µM | NCI-H226 > 100 µM | KM-20L2 > 100 µM | OVCAR-4 > 100 µM | UACC-62 35.2 µM | SK-MEL-28 > 100 µM | SF-295 67.5 µM | SNB-19 99.3 µM | A498 > 100 µM | HCT-116 > 100 µM

CC1OC(OCC2OC(Oc3c(-c4ccc(O)cc4)oc4cc(O)cc(O)c4c3=O)C(OC3OC(C)C(O)C(O)C3O)C(O)C2O)C(O)C(O)C1O (stereo not given)
inactive: U-251 > 100 µM | CAKI-1 > 100 µM | SK-MEL-2 > 100 µM | Malme-3M > 100 µM | UACC-257 > 100 µM | NCI-H226 > 100 µM | KM-20L2 > 100 µM | OVCAR-4 > 54.8 µM | UACC-62 > 100 µM | SK-MEL-28 > 100 µM | 786-0 > 100 µM | SF-295 > 100 µM | SNB-19 > 100 µM | A498 > 100 µM | HCT-116 > 100 µM
